Measured values taken from patent US6028197A, “Dibenzo[a,g]quinolizinium derivatives and the salts thereof” (Hanwha Corporation, priority 1998, dated 2000).
Read-outs that look alike come from different tables or passages of the source.

Assays:
[1] = Acute oral toxicity in SD rats; assay type: in vivo; settings: rat, in vivo, po, rats
Protocol: (§1) Meanwhile, the toxicity of the compounds of the present invention was investigated as follows: i.e., the compounds were suspended into propylene glycol and then orally administered into each of 5 male and female SD rats at the age of 5-weeks that were fasted for 12 hours. Under the usual breeding conditions, general symptoms, weight change and lethal case of the above rats were monitored for two weeks. At the dose over 2,000 mg/kg of the compound nos. 2, 3, 9 and 68, general symptoms and the body weight change of the animals were normal and the lethal case was not observed.

SD rats = assay: Acute oral toxicity in SD rats; assay type: in vivo; settings: for general symptoms and the body weight change: oral dose over 2,000 mg/kg, monitored for two weeks; for lethal case: rat, in vivo
Protocol: as §1

sterol 14-reductase = target: T1, sterol 14-reductase (Rattus norvegicus, UniProt A0ACM8Q6X4); assay: Inhibition of sterol 14-reductase in rat liver microsomes; assay type: biochemical
T1 construct: microsome which was used as an enzyme source of sterol 14-reductase; from tissue; host or cells: liver microsomes of male Sprague-Dawley rats fed lovastatin and cholestyramine
T1 sequence (A0ACM8Q6X4 1-418): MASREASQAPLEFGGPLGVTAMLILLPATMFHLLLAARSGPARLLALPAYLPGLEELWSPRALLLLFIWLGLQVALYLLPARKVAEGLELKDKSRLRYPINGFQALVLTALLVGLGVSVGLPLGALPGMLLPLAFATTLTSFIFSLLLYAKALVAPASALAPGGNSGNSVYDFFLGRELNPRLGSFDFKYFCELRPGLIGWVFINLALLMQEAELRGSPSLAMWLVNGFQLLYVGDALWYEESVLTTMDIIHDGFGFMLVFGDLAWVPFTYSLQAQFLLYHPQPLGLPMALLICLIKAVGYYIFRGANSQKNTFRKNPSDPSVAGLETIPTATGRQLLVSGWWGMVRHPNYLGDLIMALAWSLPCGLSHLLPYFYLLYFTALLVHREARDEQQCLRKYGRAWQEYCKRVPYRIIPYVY

Syrian Golden Hamster = assay: In vivo effect on plasma lipids in Syrian Golden Hamster; settings: for HDL cholesterol, change versus normal diet control / LDL cholesterol, change versus normal diet control / Total cholesterol, change versus normal diet control / Triglyceride, change versus normal diet control / HDL cholesterol / LDL cholesterol / Total cholesterol / Triglyceride: 14 days; for total cholesterol, LDL-cholesterol, and triglyceride levels: compared with lovastatin; for HDL cholesterol / LDL cholesterol / Total cholesterol / Triglyceride: normal diet, plasma
Protocol: In order to investigate the effect of the compound of formula (I) of the invention, the compound was orally administered into male Syrian Golden Hamsters having weights of 90~110 g for two weeks and blood was then taken from each animal. Plasma lipids, i.e., total cholesterol, LDL-cholesterol,HDL-cholesterol and triglycerides were analyzed using an automatic analyzer (Automatic analyzer model Hitachi 7150).
Male Syrian Golden Hamsters weighing 90~110 g distributed from Samyuk Animal Laboratory, Seoul, Korea were bred under the following conditions: they were maintained under reverse light cycle (light cycle: from 6 P.M to 6 A.M; dark cycle: from 6 A.M. to 6 P.M.). The food and water were supplied at 10 A.M. The commercially available standard rodent chows were used. The hamsters were divided into 6 or 7 animals per group. The animals were fasted for 12 hours before administrating the drug. Then, 5,6-dihydrodibenzo[a,g]quinolizinium salts (compound no. 2) dissolved in a 0.25% methyl cellulose solution was administered orally for 14 days at the indicated time per a day. After fasting animals for 24 hours from the last administration, blood was extracted using a cardiac puncture and plasma was then isolated. Plasma lipids, i.e., total cholesterol, LDL-cholesterol, HDL-cholesterol and triglyceride values were analyzed using Automatic Analyzer (Hitachi 7150).

HepG2 cells = assay: Cholesterol biosynthesis in cultured human liver cell line ([1,2-14C]acetate incorporation); assay type: cell-based; settings: compared with AY9944 (comparative drug)
Protocol: Cultured human liver HepG2 cell line was grown on RPMI (Rosewell park Memorial Institute) 1640 culture medium containing 10% PBS until 60% of monolayer are formed in a 60 mm culture dish. After replacing the medium with 3 ml of a fresh culture medium containing 10% (v/v) LPDS (Fetal calf lipoprotein-deficient serum), the cells were further grown for 48 hours until 90% of cultivation degree appear The culture medium was removed and the cell was then washed with PBS. 2 ml of culture medium containing compound no. 2 (final concentration 100 μM) and AY-9944 (final concentration 1 μM) were added thereto. Then, the medium was cultivated at 37° C. for 1 hour under the condition of 95% air/5% carbonic acid gas. AY-9944 which is an inhibitor for sterol 7-reductase was used as a control drug for assuring the present experimental procedure on the inhibition of cholesterol biosynthesis. Thereafter, 3 μCi of [1,2-^14 C]acetate (72 mCi/mmol) were added thereto. The cultivation was continued for 2 hours so that the isotope is introduced into the cell and used as a precursor for sterol to be synthesized. Then, the culture medium was completely removed and washed with PBS twice and the cells were collected by scratching. 10 μg of cholesterol, 10 μg of lanosterol and [^3 H]cholesterol (30,000 dpm) were added thereto, and saponification reaction was carried out at 70° C. for an hour by adding 7.5% of methanolic KOH solution. Unsaponified sterol was removed by extracting them three times with 3 ml of petroleum ether and dried with nitrogen purging. The dried samples were redissolved in 200 μl of chloroform. An aliquot of the samples was loaded onto Silicagel 60F thin layer plate and then separated using ethyl acetate/hexane 25/75 (v/v) as the developing solvent. The thin layer film was developed by exposure to Amersham Hyperfilm at -70° C. for 7 days. Cholesterol band were confirmed by comparing the band appeared in the film and that appeared in the iodine-stained thin layer. After scratching the cholesterol band, it was quantified by a liquid scintillation counter.

[2] = read-out: Enzyme Activity (relative in vitro activity for sterol 14-reductase, IC50 class)

For `CCc1c2[n+](cc3c(OCc4ccc(C(C)(C)C)cc4)c(OC)ccc13)CCc1cc(OC)c(OC)cc1-2` [Compound No. 2, 5,6-dihydro-2,3-dimethoxybenzo[a]-9-[4-(tert-butyl)benzyloxy]-13-ethyl-10-methoxybenzo[g]quinolizinium chloride], the LD50 at 336 h ([1]; female) was greater than 2000 mg/kg, the LD50 at 336 h ([1]; male) was greater than 2000 mg/kg and the “general symptoms and the body weight change” value (SD rats) was “normal”. For the same compound, the lethal case (SD rats) was “not observed”, the IC50 (sterol 14-reductase; rat liver microsome, anaerobic, 10 min at 37° C., read-out: level of compound at which 50% of inhibition of the enzymatic activity was observed) was 0.1 to 0.3 µM and the IC50 (sterol 14-reductase; [2]) was less than 1 µM. For the same compound, the “HDL cholesterol, change versus normal diet control” value (Syrian Golden Hamster; 0.3 mg/kg/day oral) was “+11.4%”, the “LDL cholesterol, change versus normal diet control” value (Syrian Golden Hamster; 0.3 mg/kg/day oral) was -16.0% and the “Total cholesterol, change versus normal diet control” value (Syrian Golden Hamster; 0.3 mg/kg/day oral) was -11.5%. For the same compound, the “Triglyceride, change versus normal diet control” value (Syrian Golden Hamster; 0.3 mg/kg/day oral) was -14.6%, the “total cholesterol, LDL-cholesterol, and triglyceride levels” value (Syrian Golden Hamster) was “markedly decreased” and the HDL cholesterol (Syrian Golden Hamster; 0.3 mg/kg/day oral) was 66.6 ± 7 mg/dL. For the same compound, the LDL cholesterol (Syrian Golden Hamster; 0.3 mg/kg/day oral) was 31.0 ± 3 mg/dL, the Total cholesterol (Syrian Golden Hamster; 0.3 mg/kg/day oral) was 115.8 ± 8 mg/dL and the Triglyceride (Syrian Golden Hamster; 0.3 mg/kg/day oral) was 67.8 ± 8 mg/dL. The “inhibition of cholesterol biosynthesis in human HepG2 cell line” value (HepG2 cells) was “markedly inhibited”.
With `CCc1c2[n+](cc3c(OCc4c(F)c(F)c(F)c(F)c4F)c(OC)ccc13)CCc1cc(OC)c(OC)cc1-2` [Compound No. 3, 5,6-dihydro-2,3-dimethoxybenzo[a]-13-ethyl-10-methoxy-9-(2,3,4,5,6-pentafluoro)benyloxybenzo[g]quinolizinium chloride] the LD50 at 336 h ([1]; female) was greater than 2000 mg/kg, the LD50 at 336 h ([1]; male) was greater than 2000 mg/kg and the “general symptoms and the body weight change” value (SD rats) was “normal”. The lethal case (SD rats) was “not observed”, the IC50 (sterol 14-reductase; [2]) was less than 1 µM and the “HDL cholesterol, change versus normal diet control” value (Syrian Golden Hamster; 0.3 mg/kg/day oral) was “+5.4%”. The “LDL cholesterol, change versus normal diet control” value (Syrian Golden Hamster; 0.3 mg/kg/day oral) was -49.2%, the “Total cholesterol, change versus normal diet control” value (Syrian Golden Hamster; 0.3 mg/kg/day oral) was -23.5% and the “Triglyceride, change versus normal diet control” value (Syrian Golden Hamster; 0.3 mg/kg/day oral) was -38.0%. The “total cholesterol, LDL-cholesterol, and triglyceride levels” value (Syrian Golden Hamster) was “markedly decreased”, the HDL cholesterol (Syrian Golden Hamster; 0.3 mg/kg/day oral) was 63.0 ± 3.0 mg/dL and the LDL cholesterol (Syrian Golden Hamster; 0.3 mg/kg/day oral) was 18.8 ± 2 mg/dL. For the same compound, the Total cholesterol (Syrian Golden Hamster; 0.3 mg/kg/day oral) was 89.0 ± 7 mg/dL, the Triglyceride (Syrian Golden Hamster; 0.3 mg/kg/day oral) was 49.2 ± 6 mg/dL and the “inhibition of cholesterol biosynthesis in human HepG2 cell line” value (HepG2 cells) was “markedly inhibited”.
Compound `CCOc1cc2c(cc1OCC)-c1c(CC)c3ccc(OCC)c(OCc4ccc(C(F)(F)F)cc4)c3c[n+]1CC2` [Compound No. 62, 5,6-dihydro-2,3-diethoxybenzo[a]-10-ethoxy-13-ethyl-9-(4-trifluoromethyl)benzyloxybenzo[g]quinolizinium chloride] has an IC50 (sterol 14-reductase; [2]) of 10 to 100 µM.
`CCOc1cc2c(cc1OCC)-c1c(CC)c3ccc(OCC)c(OCc4cccc(C(F)(F)F)c4)c3c[n+]1CC2` [Compound No. 63, 5,6-dihydro-2,3-diethoxybenzo[a]-10-ethoxy-13-ethyl-9-(3-trifluoromethyl)benzyloxyenzo[g]quinolizinium chloride] showed an IC50 (sterol 14-reductase; [2]) of 10 to 100 µM.
Work on `CCOc1cc2c(cc1OCC)-c1c(CC)c3ccc(OCC)c(OCc4c(F)c(F)c(C(F)(F)F)c(F)c4F)c3c[n+]1CC2` [Compound No. 64, 5,6-dihydro-2,3-diethoxybenzo[a]-10-ethoxy-13-ethyl-9-(2,3,5,6-tetrafluoro-4-trifluoromethyl)-benzyloxy benzo[g]quinolizinium chloride] yielded an IC50 (sterol 14-reductase; [2]) of 10 to 100 µM.
In the case of `CCOc1cc2c(cc1OCC)-c1c(CC)c3ccc(OCC)c(OCc4ccc(Cl)nc4)c3c[n+]1CC2` [Compound No. 65, 5,6-dihydro-2,3-diethoxybenzo[a]-9-(6-chloropyridine-3-yl)methoxy-10-ethoxy-13-ethylbenzo[g]-quinolizinium chloride], the IC50 (sterol 14-reductase; [2]) is reported as 10 to 100 µM.
Compound `CCCOc1cc2c(cc1OCCC)-c1c(CC)c3ccc(OCCC)c(OCc4ccc(C(C)(C)C)cc4)c3c[n+]1CC2` [Compound No. 66, 5,6-dihydro-2,3-dipropoxybenzo[a]-9-[4-(tert-butyl)benzyloxy]-13-ethyl-10-propoxybenzo[g]quinolizinium chloride] has an IC50 (sterol 14-reductase; [2]) of 10 to 100 µM.
For `CCCOc1cc2c(cc1OCCC)-c1c(CC)c3ccc(OCCC)c(OCc4c(F)c(F)c(F)c(F)c4F)c3c[n+]1CC2` [Compound No. 67, 5,6-dihydro-2,3-dipropoxybenzo[a]-13-ethyl-9-(2,3,4,5,6-pentafluoro)benzyloxy-10-propoxybenzo[g]quinolizinium chloride], the IC50 (sterol 14-reductase; [2]) was 10 to 100 µM.
Compound `CCc1c2[n+](cc3c(OCc4ccc(C(C)(C)C)cc4)c(OC)ccc13)CCc1cc(OC)c(OC)cc1-2` [Compound No. 69, 5,6-dihydro-2,3-dimethoxybenzo[a]-9-[4-(tert-butyl)-benzyloxy]-13-ethyl-10-methoxybenzo[g]quinolizinium bisulfate] has an IC50 (sterol 14-reductase; [2]) of 10 to 100 µM.
In the case of `CCc1c2[n+](cc3c(OCc4c(F)c(F)c(F)c(F)c4F)c(OC)ccc13)CCc1cc(OC)c(OC)cc1-2` [Compound No. 70, 5,6-dihydro-2,3-dimethoxybenzo[a]-13-ethyl-10-methoxy-9-(2,3,4,5,6-pentafluoro)benzyloxybenzo[g]quinolizinium acetate], the IC50 (sterol 14-reductase; [2]) is reported as 10 to 100 µM.
In the case of `CCc1c2[n+](cc3c(OCc4ccc(Cl)nc4)c(OC)ccc13)CCc1cc(OC)c(OC)cc1-2` [Compound No. 71, 5,6-dihydro-2,3-dimethoxybenzo[a]-9-(6-chloropyridine-3-yl)methoxy-13-ethyl-10-methoxybenzo-[g]quinolizinium nitrate], the IC50 (sterol 14-reductase; [2]) is reported as 10 to 100 µM.
With `CCc1c2[n+](cc3c(OCc4ccc(C)c(C)c4)c(OC)ccc13)CCc1cc(OC)c(OC)cc1-2` [compound 27, 5,6-dihydro-2,3-dimethoxybenzo[a]-9-(3,4-dimethyl)benzyloxy-13-ethyl-10-methoxybenzo[g]quinolizinium chloride] the IC50 (sterol 14-reductase; [2]) was greater than 100 µM.
For `CC[C@H](C)C(=O)O[C@H]1C[C@@H](C)C=C2C=C[C@H](C)[C@H](CC[C@@H]3C[C@@H](O)CC(=O)O3)[C@H]21` [lovastatin, reference compound], the “HDL cholesterol, change versus normal diet control” value (Syrian Golden Hamster; 6.0 mg/kg/day oral) was “+11.2%”, the “LDL cholesterol, change versus normal diet control” value (Syrian Golden Hamster; 6.0 mg/kg/day oral) was -21.4% and the “Total cholesterol, change versus normal diet control” value (Syrian Golden Hamster; 6.0 mg/kg/day oral) was -17.6%. The “Triglyceride, change versus normal diet control” value (Syrian Golden Hamster; 6.0 mg/kg/day oral) was -30.1%, the HDL cholesterol (Syrian Golden Hamster; 6.0 mg/kg/day oral) was 67.0 ± 3 mg/dL and the LDL cholesterol (Syrian Golden Hamster; 6.0 mg/kg/day oral) was 29.1 ± 2 mg/dL. It also gave a Total cholesterol (Syrian Golden Hamster; 6.0 mg/kg/day oral) of 107.8 ± 9 mg/dL and a Triglyceride (Syrian Golden Hamster; 6.0 mg/kg/day oral) of 55.5 ± 7 mg/dL.
